The values that follow are results of earlier work, collected in patent US20230098686A1, “NERVE SPECIFIC FLUOROPHORE FORMULATIONS FOR DIRECT AND SYSTEMIC ADMINISTRATION” (OREGON HEALTH & SCIENCE UNIVERSITY, priority 2020, published 2023).

The data set relates to nerve tissue. The following applies: previous studies.

On to `CC/N=c1/cc2oc3cc(NCC)c(C)cc3nc-2cc1C` [Oxazine 4], for which the nerve specificity entry is “high nerve-specificity”.
